Among the data in publication PMC8121435, “Cork-in-bottle mechanism of inhibitor binding to mammalian complex I” (Science Advances, 2021) are IC50 values, retold here.

Type in all cases: biochemical
The target in test [1] is T1, complex I in mitochondrial membranes (Bos taurus, UniProt P03887+P17694+P42026).
T1 construct: Complex I from bovine heart were prepared; from tissue; host or cells: bovine heart mitochondria
The test is described as follows: NADH oxidation in bovine mitochondrial membranes. To be noted: B. taurus membranes 20 μg ml−1; ± SE. How it is done: (§1) All catalytic activity assays were conducted at 32°C in 96-well plates using a Molecular Devices Spectramax 384 plus plate reader. Catalysis was initiated by addition of 200 μM NADH and monitored at 340 and 380 nm (ε340–380 = 4.81 mM^−1 cm^−1). Linear rates were measured for all assays, inhibitors were added from dimethyl sulfoxide stock solutions as required, and inhibitor-insensitive rates (using either 1 μM piericidin A or 1.4 μM IACS-2858) were subtracted from each measured rate. Membrane samples were prepared as described previously ([17], [20], [59], [60]), diluted to 20 μg ml^−1 in 10 mM tris-SO4 (pH 7.5) and 250 mM sucrose, and supplemented with 3 μM horse heart cytochrome c (except for P. denitrificans, for which the activity is unaffected by the addition). Mouse, bovine, and yeast (Y. lipolytica) complex I were purified as described previously ([17], [20], [59]); diluted to 0.5 nM in 20 mM tris-HCl (pH 7.5), 0.15% asolectin, and 0.15% CHAPS; and assayed using either 200 μM dQ or 200 μM ubiquinone-1 (Sigma-Aldrich). Complex I was purified from P. denitrificans strain Pd1222 ([61]) and provided by O. D. Jarman (MRC Mitochondrial Biology Unit, University of Cambridge); it was assayed likewise but in 10 mM MES-HCl (pH 6.5), 25 mM NaCl, and 2 mM CaCl2. […]

A further test addresses T2, bovine complex I (Bos taurus, UniProt P03887+P17694+P42026).
T2 construct: Complex I from bovine heart were prepared; from tissue; host or cells: bovine heart mitochondria
Briefly: NADH:decylubiquinone oxidoreduction by purified bovine complex I. Conditions: purified B. taurus complex I, dQ; ± SE. On the procedure:
as §1

Test [2] deals with T3, yeast (Y. lipolytica) complex I (Yarrowia lipolytica, UniProt Q9B6E8+Q9UUT7+Q9UUU1).
T3 sequence (Q9B6E8 1-341): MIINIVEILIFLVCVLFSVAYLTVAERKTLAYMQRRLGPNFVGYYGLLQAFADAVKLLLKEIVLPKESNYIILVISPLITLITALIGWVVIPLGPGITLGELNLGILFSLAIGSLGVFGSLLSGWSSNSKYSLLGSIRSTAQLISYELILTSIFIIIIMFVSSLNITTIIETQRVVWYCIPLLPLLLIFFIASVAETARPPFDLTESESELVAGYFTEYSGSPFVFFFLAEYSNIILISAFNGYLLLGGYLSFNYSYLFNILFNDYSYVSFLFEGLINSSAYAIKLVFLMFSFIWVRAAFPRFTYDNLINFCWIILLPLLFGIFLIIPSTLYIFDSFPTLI
T3 sequence (Q9UUU1 22-466): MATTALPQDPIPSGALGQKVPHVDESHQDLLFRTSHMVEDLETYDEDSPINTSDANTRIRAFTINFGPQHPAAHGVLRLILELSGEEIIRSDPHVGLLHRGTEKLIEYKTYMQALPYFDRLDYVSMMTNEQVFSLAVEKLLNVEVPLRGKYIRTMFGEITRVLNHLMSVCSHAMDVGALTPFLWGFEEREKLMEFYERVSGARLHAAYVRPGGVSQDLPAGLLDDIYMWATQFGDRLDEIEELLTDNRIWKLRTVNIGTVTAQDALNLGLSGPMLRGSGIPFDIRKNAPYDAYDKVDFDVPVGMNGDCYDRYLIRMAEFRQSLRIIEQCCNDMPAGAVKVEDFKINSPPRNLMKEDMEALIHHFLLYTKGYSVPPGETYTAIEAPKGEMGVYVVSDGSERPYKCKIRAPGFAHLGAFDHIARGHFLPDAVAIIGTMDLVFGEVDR
T3 sequence (Q9UUT7 28-210): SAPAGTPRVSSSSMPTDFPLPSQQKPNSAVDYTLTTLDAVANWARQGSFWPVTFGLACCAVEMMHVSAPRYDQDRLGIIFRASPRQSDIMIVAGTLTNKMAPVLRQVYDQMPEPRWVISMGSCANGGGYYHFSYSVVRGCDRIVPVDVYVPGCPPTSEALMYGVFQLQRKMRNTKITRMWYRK
The test is described as follows: NADH:decylubiquinone oxidoreduction by purified Y. lipolytica complex I. On the procedure: as §1

Usually IC50 stands for the concentration needed to halve the response being measured. Lower therefore signals greater potency. As for `CS(=O)(=O)C1CCN(c2cccc(Cn3cc(-c4nc(-c5ccc(OC(F)(F)F)cc5)no4)ccc3=O)c2)CC1` [IACS-2858, 1-(3-(4-(Methylsulfonyl)piperidin-1-yl)benzyl)-5-(3-(4-(trifluoromethoxy)phenyl)-1,2,4-oxadiazol-5-yl)pyridin-2(1H)-one], the figures for the IC50 (in test [1]; at bovine complex I; in test [2]) were 3.4 ± 0.3 nM, 9.3 ± 0.7 nM and 358 ± 37 nM, respectively.
